Laboratory results: US20250313548A1 (Actio Biosciences, Inc., priority 2023, published 2025)

These compounds were tested against human, KCNT1 (Homo sapiens (Human), UniProt Q5JUK3) (assay: FLIPR Tl/K Flux Assay). Details: HEK293 cells stably expressing human KCNT1; Tl+ flux stimulated with EC80 of agonist Loxapine.
Assay type: cell-based
Summary of the method: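 HEK293 cells stably expressing human KCNT1 were loaded with FLIPR potassium dye in HEPES/HBSS pH 7.4 with 5 mM probenecid, 1 h at 25 °C, then given test compound for 30 min at 25 °C. Tl+ flux was triggered with chloride-free buffer containing Tl+ and EC80 loxapine and read 160 s. IC50 came from Hill fits of % inhibition.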

Sequence of human, KCNT1 (Q5JUK3 whole entry): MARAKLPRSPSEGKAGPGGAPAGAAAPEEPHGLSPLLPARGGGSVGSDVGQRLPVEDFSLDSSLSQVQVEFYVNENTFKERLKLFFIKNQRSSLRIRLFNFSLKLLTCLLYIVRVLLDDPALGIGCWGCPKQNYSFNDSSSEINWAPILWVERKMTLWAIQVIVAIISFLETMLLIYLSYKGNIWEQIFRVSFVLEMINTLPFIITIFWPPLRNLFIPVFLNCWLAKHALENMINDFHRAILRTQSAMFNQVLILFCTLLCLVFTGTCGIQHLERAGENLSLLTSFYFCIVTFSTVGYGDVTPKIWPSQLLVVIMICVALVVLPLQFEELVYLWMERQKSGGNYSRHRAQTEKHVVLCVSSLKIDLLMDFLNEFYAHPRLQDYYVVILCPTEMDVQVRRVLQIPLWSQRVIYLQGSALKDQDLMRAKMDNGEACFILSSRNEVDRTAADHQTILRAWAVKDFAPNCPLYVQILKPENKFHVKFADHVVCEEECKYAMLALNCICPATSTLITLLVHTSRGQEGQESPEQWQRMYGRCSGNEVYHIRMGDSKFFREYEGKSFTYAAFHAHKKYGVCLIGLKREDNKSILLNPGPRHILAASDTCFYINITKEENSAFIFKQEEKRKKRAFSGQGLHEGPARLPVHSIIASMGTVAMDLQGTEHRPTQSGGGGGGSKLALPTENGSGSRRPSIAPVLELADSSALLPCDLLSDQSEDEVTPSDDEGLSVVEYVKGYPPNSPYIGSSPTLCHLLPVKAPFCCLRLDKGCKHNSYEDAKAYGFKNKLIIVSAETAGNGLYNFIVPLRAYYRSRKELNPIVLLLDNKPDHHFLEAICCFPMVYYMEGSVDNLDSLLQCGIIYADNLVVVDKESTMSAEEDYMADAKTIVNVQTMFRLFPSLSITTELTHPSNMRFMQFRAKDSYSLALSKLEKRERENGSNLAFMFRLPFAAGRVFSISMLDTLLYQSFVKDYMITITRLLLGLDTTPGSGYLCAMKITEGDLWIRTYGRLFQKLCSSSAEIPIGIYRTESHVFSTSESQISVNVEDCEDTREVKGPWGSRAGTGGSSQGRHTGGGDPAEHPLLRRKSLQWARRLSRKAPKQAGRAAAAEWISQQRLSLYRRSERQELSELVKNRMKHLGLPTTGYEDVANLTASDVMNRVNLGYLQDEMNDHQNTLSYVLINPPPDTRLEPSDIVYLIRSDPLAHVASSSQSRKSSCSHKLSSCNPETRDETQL

| Compound | IC50 |
| --- | --- |
| Cn1nc(C(F)(F)F)cc1C(=O)N[C@H]1CCc2nn(-c3cc(C4CC4)ncc3F)cc21 [Compound I-190a, (S)-N-(2-(2-Cyclopropyl-5-fluoropyridin-4-yl)-2,4,5,6-tetrahydrocyclopenta[c]pyrazol-4-yl)-1-methyl-3-(trifluoromethyl)-1H-pyrazole-5-carboxamide] | < 250 nM |
| Cn1nc(C(F)(F)F)nc1C(=O)N[C@H]1CCCc2oc(-c3cc(C4CC4)ncc3F)nc21 [Compound I-191a, (S)—N-(2-(2-Cyclopropyl-5-fluoropyridin-4-yl)-4,5,6,7-tetrahydrobenzo[d]oxazol-4-yl)-1-methyl-3-(trifluoromethyl)-1H-1,2,4-triazole-5-carboxamide] | < 250 nM |
| Cc1nc(C(F)(F)F)oc1C(=O)N[C@H]1CCc2cnc(-c3ccnc(C(F)(F)F)c3)cc21 [Compound I-192a, (S)-4-Methyl-2-(trifluoromethyl)-N-(3-(2-(trifluoromethyl)pyridin-4-yl)-6,7-dihydro-5H-cyclopenta[c]pyridin-5-yl)oxazole-5-carboxamide] | 250 to 500 nM |
| O=C(N[C@H]1CCCn2nc(-c3ccnc(C4CC4)c3)cc21)c1ccnc(OC(F)(F)F)c1 [Compound I-193a, (S)-N-(2-(2-Cyclopropylpyridin-4-yl)-4,5,6,7-tetrahydropyrazolo[1,5-a]pyridin-4-yl)-2-(trifluoromethoxy)isonicotinamide] | < 250 nM |
| COc1cc(C(=O)N[C@H]2CCCCn3nc(-c4cc(C(F)(F)F)ncc4F)cc32)ccn1 [Compound I-194a, (S)-N-(2-(5-Fluoro-2-(trifluoromethyl)pyridin-4-yl)-5,6,7,8-tetrahydro-4H-pyrazolo[1,5-a]azepin-4-yl)-2-methoxyisonicotinamide] | < 250 nM |
| O=C(N[C@H]1CCCn2nc(-c3cc(C(F)(F)F)ncc3F)cc21)c1cnc2ccccc2n1 [Compound I-195a, (S)-N-(2-(5-Fluoro-2-(trifluoromethyl)pyridin-4-yl)-4,5,6,7-tetrahydropyrazolo[1,5-a]pyridin-4-yl)quinoxaline-2-carboxamide] | < 250 nM |
| COc1cc(C(=O)N[C@H]2CCc3cnc(-c4ccnc(C(F)(F)F)c4)cc32)ccn1 [Compound I-196a, (S)-2-Methoxy-N-(3-(2-(trifluoromethyl)pyridin-4-yl)-6,7-dihydro-5H-cyclopenta[c]pyridin-5-yl)isonicotinamide] | 500 to 1000 nM |
| O=C(N[C@H]1CCc2cnc(-c3ccnc(C(F)(F)F)c3)cc21)c1cncc(C(F)(F)F)n1 [Compound I-197a, (S)-6-(trifluoromethyl)-N-(3-(2-(trifluoromethyl)pyridin-4-yl)-6,7-dihydro-5H-cyclopenta[c]pyridin-5-yl)pyrazine-2-carboxamide] | > 1000 nM |
| O=C(N[C@H]1CCn2nc(-c3ccnc(C(F)(F)F)c3)cc21)c1ccnc(OC(F)(F)F)c1 [Compound I-198a, (S)-2-(Trifluoromethoxy)-N-(2-(2-(trifluoromethyl)pyridin-4-yl)-5,6-dihydro-4H-pyrrolo[1,2-b]pyrazol-4-yl)isonicotinamide] | < 250 nM |
| O=C(N[C@H]1CCCn2nc(-c3cc(C(F)(F)F)ncc3F)cc21)c1ccnc(OC(F)(F)F)c1 [Compound I-199a, (S)-N-(2-(5-Fluoro-2-(trifluoromethyl)pyridin-4-yl)-4,5,6,7-tetrahydropyrazolo[1,5-a]pyridin-4-yl)-2-(trifluoromethoxy)isonicotinamide] | < 250 nM |
| CCc1cc(C#N)cc(C(=O)N[C@H]2CCn3nc(-c4ccnc(C(F)(F)F)c4)cc32)c1 [Compound I-200a, (S)-3-Cyano-5-ethyl-N-(2-(2-(trifluoromethyl)pyridin-4-yl)-5,6-dihydro-4H-pyrrolo[1,2-b]pyrazol-4-yl)benzamide] | < 250 nM |
| Cn1nc(C(F)(F)F)cc1C(=O)N[C@H]1CCCn2nc(-c3ccnc(C4CC4)c3)nc21 [Compound I-201a, (S)—N-(2-(2-Cyclopropylpyridin-4-yl)-5,6,7,8-tetrahydro-[1,2,4]triazolo[1,5-a]pyridin-8-yl)-1-methyl-3-(trifluoromethyl)-1H-pyrazole-5-carboxamide] | < 250 nM |
| O=C(N[C@H]1CCCn2nc(-c3cc(C(F)(F)F)ncc3F)cc21)c1cnc(C(F)(F)F)cn1 [Compound I-202a, (S)-N-(2-(5-Fluoro-2-(trifluoromethyl)pyridin-4-yl)-4,5,6,7-tetrahydropyrazolo[1,5-a]pyridin-4-yl)-5-(trifluoromethyl)pyrazine-2-carboxamide] | < 250 nM |
| Cn1nc(C(F)(F)F)nc1C(=O)N[C@H]1CCCn2nc(-c3cc(C(F)(F)F)ncc3F)cc21 [Compound I-203a, (S)-N-(2-(5-Fluoro-2-(trifluoromethyl)pyridin-4-yl)-4,5,6,7-tetrahydropyrazolo[1,5-a]pyridin-4-yl)-1-methyl-3-(trifluoromethyl)-1H-1,2,4-triazole-5-carboxamide] | < 250 nM |
| O=C(N[C@H]1CCCn2nc(-c3cc(C(F)(F)F)ncc3F)cc21)c1cncc(C(F)(F)F)n1 [Compound I-204a, (S)-N-(2-(5-Fluoro-2-(trifluoromethyl)pyridin-4-yl)-4,5,6,7-tetrahydropyrazolo[1,5-a]pyridin-4-yl)-6-(trifluoromethyl)pyrazine-2-carboxamide] | < 250 nM |
| Cn1nc(C(F)(F)F)nc1C(=O)N[C@H]1CCn2nc(-c3ccnc(C4CC4)c3)cc21 [Compound I-205a, (S)-N-(2-(2-Cyclopropylpyridin-4-yl)-5,6-dihydro-4H-pyrrolo[1,2-b]pyrazol-4-yl)-1-methyl-3-(trifluoromethyl)-1H-1,2,4-triazole-5-carboxamide] | < 250 nM |
| Cc1nc(C(=O)N[C@H]2CCn3nc(-c4ccnc(C(C)(F)F)c4)cc32)n(C)n1 [Compound I-206a, (S)-N-(2-(2-(1,1-Difluoroethyl)pyridin-4-yl)-5,6-dihydro-4H-pyrrolo[1,2-b]pyrazol-4-yl)-1,3-dimethyl-1H-1,2,4-triazole-5-carboxamide] | > 1000 nM |

The remaining lines, values ahead:

| IC50 | Compound |
| --- | --- |
| < 250 nM | COc1cncc(C(=O)N[C@H]2CCn3nc(-c4ccnc(C(F)(F)F)c4)cc32)n1 [Compound I-207a, (S)-6-Methoxy-N-(2-(2-(trifluoromethyl)pyridin-4-yl)-5,6-dihydro-4H-pyrrolo[1,2-b]pyrazol-4-yl)pyrazine-2-carboxamide] |
| < 250 nM | O=C(N[C@H]1CCCc2oc(-c3cc(C4CC4)ncc3F)nc21)c1cncc(C(F)(F)F)n1 [Compound I-208a, (S)-N-(2-(2-Cyclopropyl-5-fluoropyridin-4-yl)-4,5,6,7-tetrahydrobenzo[d]oxazol-4-yl)-6-(trifluoromethyl)pyrazine-2-carboxamide] |
| < 250 nM | Cn1nc(C(F)(F)F)cc1C(=O)N[C@H]1CCCn2nc(-c3cc(C(F)(F)F)ncc3F)cc21 [Compound I-209a, (S)-N-(2-(5-Fluoro-2-(trifluoromethyl)pyridin-4-yl)-4,5,6,7-tetrahydropyrazolo[1,5-a]pyridin-4-yl)-1-methyl-3-(trifluoromethyl)-1H-pyrazole-5-carboxamide] |
| < 250 nM | COc1nc(C(=O)N[C@H]2CCn3nc(-c4ccnc(C(F)(F)F)c4)cc32)n(C)n1 [Compound I-210a, (S)-3-Methoxy-1-methyl-N-(2-(2-(trifluoromethyl)pyridin-4-yl)-5,6-dihydro-4H-pyrrolo[1,2-b]pyrazol-4-yl)-1H-1,2,4-triazole-5-carboxamide] |
| < 250 nM | COc1cc(-c2nc3c(o2)CCC[C@@H]3NC(=O)c2cncc(C(F)(F)F)n2)ccn1 [Compound I-211a, (S)-N-(2-(2-Methoxypyridin-4-yl)-4,5,6,7-tetrahydrobenzo[d]oxazol-4-yl)-6-(trifluoromethyl)pyrazine-2-carboxamide] |
| < 250 nM | COc1cc(-c2cc3n(n2)CCCC[C@@H]3NC(=O)c2cc(C(F)(F)F)nn2C)c(F)cn1 [Compound I-212a, (S)-N-(2-(5-Fluoro-2-methoxypyridin-4-yl)-5,6,7,8-tetrahydro-4H-pyrazolo[1,5-a]azepin-4-yl)-1-methyl-3-(trifluoromethyl)-1H-pyrazole-5-carboxamide] |
| < 250 nM | O=C(N[C@H]1CCCn2nc(-c3ccnc(C(F)(F)F)c3)cc21)c1ccnc(OC(F)(F)F)c1 [Compound I-213a, (S)-2-(Trifluoromethoxy)-N-(2-(2-(trifluoromethyl)pyridin-4-yl)-4,5,6,7-tetrahydropyrazolo[1,5-a]pyridin-4-yl)isonicotinamide] |
| < 250 nM | COc1cc(C(=O)N[C@H]2CCCn3nc(-c4ccnc(C(F)(F)F)c4)nc32)ccn1 [Compound I-214a, (S)-2-Methoxy-N-(2-(2-(trifluoromethyl)pyridin-4-yl)-5,6,7,8-tetrahydro-[1,2,4]triazolo[1,5-a]pyridin-8-yl)isonicotinamide] |
| < 250 nM | O=C(N[C@H]1CCCn2nc(-c3ccnc(C(F)(F)F)c3)nc21)c1cncc(C(F)(F)F)n1 [Compound I-215a, (S)-6-(Trifluoromethyl)-N-(2-(2-(trifluoromethyl)pyridin-4-yl)-5,6,7,8-tetrahydro-[1,2,4]triazolo[1,5-a]pyridin-8-yl)pyrazine-2-carboxamide] |
| < 250 nM | Cc1nc(C(F)(F)F)oc1C(=O)N[C@H]1CCCn2nc(-c3ccnc(C(F)(F)F)c3)nc21 [Compound I-216a, (S)-4-Methyl-2-(trifluoromethyl)-N-(2-(2-(trifluoromethyl)pyridin-4-yl)-5,6,7,8-tetrahydro-[1,2,4]triazolo[1,5-a]pyridin-8-yl)oxazole-5-carboxamide] |
| < 250 nM | Cn1nc(C(F)(F)F)cc1C(=O)N[C@H]1CCCc2oc(-c3cc(C4CC4)ncc3F)nc21 [Compound I-217a, (S)-N-(2-(2-Cyclopropyl-5-fluoropyridin-4-yl)-4,5,6,7-tetrahydrobenzo[d]oxazol-4-yl)-1-methyl-3-(trifluoromethyl)-1H-pyrazole-5-carboxamide] |
| 250 to 500 nM | Cc1nc(C(=O)N[C@H]2CCn3nc(-c4ccnc(C5CC5)c4)cc32)n(C)n1 [Compound I-218a, (S)-N-(2-(2-Cyclopropylpyridin-4-yl)-5,6-dihydro-4H-pyrrolo[1,2-b]pyrazol-4-yl)-1,3-dimethyl-1H-1,2,4-triazole-5-carboxamide] |
